Biological target: mGluR4 (UniProt Q14833)
Experiment: mGluR4 potentiation assay (EC50 for potentiation at EC20 agonist; fluorometric plate reader, Ca2+ or thallium dye)
Format: cell-based
Details: potentiation of mGluR4; species of receptor not given
Method: The disclosed compounds and compositions can be evaluated for their ability to act as a potentiator of metabotropic glutamate receptor activity, in particular mGluR4 activity, by any suitable known methodology known in the art. For example, Chinese Hamster Ovary (CHO) cells transacted with human mGluR4 or HEK cells co-transfected with rat mGluR4 and the G-protein regulated Inwardly Rectifying Potassium channel (GIRK) were plated in clear bottom assay plates for assay in a Hamamatsu FDSS Fluorometric Plate Reader. The cells were loaded with either a Ca2+-sensitive fluorescent dye or the thallium responsive dye and the plates were washed and placed into a suitable kinetic plate reader. For human mGluR4 assays, a fluorescence baseline was established for 3-5 seconds, the disclosed compounds were then added to the cells, and the response in cells was measured. Approximately two and a half minutes later, a concentration of mGluR4 orthosteric agonist (e.g. glutamate or L-AP4) eliciting approximately 20% (EC20) of the maximal agonist response was added to the cells, and the response was measured. Two minutes later, a concentration of mGluR4 agonist (e.g. glutamate or L-AP4) eliciting 80% (EC80) of the maximal agonist response was added to the cells, and the response was measured. For rat mGluR4/GIRK experiments, a baseline was established for approximately five seconds, disclosed compounds were added, and either an EC20 or EC80 concentration of agonist was added approximately two and one half minutes later. Potentiation of the agonist response of mGluR4 by the disclosed compounds was observed as an increase in response to the EC20 concentration of agonist in the presence of compound compared to the response to agonist in the absence of compound. Similarly, antagonism of the agonist response of mGluR4 by the disclosed compounds was observed as a decrease in response to the EC80 concentration of agonist in the presence of compound compared to the response to agonist in the absence of compound.
The above described assay operated in two modes. In the first mode, a range of concentrations of the disclosed compounds are added to cells, followed by a single fixed concentration of agonist. If the compound acts as a potentiator, an EC50 so value for potentiation and a maximum extent of potentiation by the compound at this concentration of agonist is determined by non-linear curve fitting. If the compound acts as a noncompetitive antagonist, an IC50 value is determined by non-linear curve fitting. In the second mode, several fixed concentrations of the disclosed compounds are added to various wells on a plate, followed by a range in concentrations of agonist for each concentration of disclosed compound. The EC50 values for the agonist at each concentration of compound are determined by non-linear curve fitting. A decrease in the EC50 value of the agonist with increasing concentrations of the sample compound (a leftward shift of the agonist concentration-response curve) is an indication of the degree of mGluR4 potentiation at a given concentration of the sample compound. A decrease in the maximal response of the agonist with increasing concentrations of the sample compounds, with or without a rightward shift in agonist potency, is an indication of the degree of noncompetitive antagonism at mGluR4. The second mode also indicates whether the sample compounds also affect the maximum response to mGluR4 to agonists.

Q: O=C(Cc1noc2cc(Nc3n[nH]c4cccnc34)ccc12)N1CC(F)(F)C1 [Example 144, 1-(3,3-difluoroazetidin-1-yl)-2-[6-(1H-pyrazolo[4,3-b]pyridin-3-ylamino)-1,2-benzoxazol-3-yl]ethanone] was tested. Which EC50 did it give?
A: 2580 nM

Q: How did the EC50 turn out when CC(C)(C)Cc1noc2cc(Nc3n[nH]c4cccnc34)cc(F)c12 [Example 145, 3-(2,2-dimethylpropyl)-4-fluoro-N-(1H-pyrazolo[4,3-b]pyridin-3-yl)-1,2-benzoxazol-6-amine; 2,2,2-trifluoroacetate acid] was run?
A: 1450 nM

Q: CC(C)(C)C(F)c1noc2cc(Nc3n[nH]c4cccnc34)ccc12 (stereo not shown) [Example 146, 3-(1-fluoro-2,2-dimethyl-propyl)-N-(1H-pyrazolo[4,3-b]pyridin-3-yl)-1,2-benzoxazol-6-amine] was tested. Which EC50 did it give?
A: 2110 nM

Q: Which EC50 does the source give for CCCCC(F)c1noc2cc(Nc3n[nH]c4cccnc34)ccc12 (stereo not shown) [Example 147, 3-(1-fluoropentyl)-N-(1H-pyrazolo[4,3-b]pyridin-3-yl)-1H-benzoxazol-6-amine] here?
A: 1490 nM

Q: Which EC50 does the source give for CC(C)(C)Cc1noc2cc(Nc3n[nH]c4ncccc34)cc(F)c12 [Example 148, 3-(2,2-dimethylpropyl)-4-fluoro-N-(1H-pyrazolo[3,4-b]pyridin-3-yl)-1,2-benzoxazol-6-amine] here?
A: > 30000 nM

Q: With CC(C)(C)Cc1noc2cc(Nc3n[nH]c4nccnc34)cc(F)c12 [Example 149, 3-(2,2-dimethylpropyl)-4-fluoro-N-(1H-pyrazolo[3,4-b]pyrazin-3-yl)-1,2-benzoxazol-6-amine] as the molecule, how does the EC50 read?
A: > 10000 nM

Q: How did the EC50 turn out when CC(C)(C)Cc1noc2cc(Nc3n[nH]c4ncc(F)cc34)cc(F)c12 [Example 150, 3-(2,2-dimethylpropyl)-4-fluoro-N-(5-fluoro-1H-pyrazolo[3,4-b]pyridin-3-yl)-1,2-benzoxazol-6-amine] was run?
A: > 10000 nM

Q: For CC(C)(C)Cc1noc2cc(Nc3n[nH]c4cc(F)cnc34)cc(F)c12 [Example 151, 3-(2,2-dimethylpropyl)-4-fluoro-N-(6-fluoro-1H-pyrazolo[4,3-b]pyridin-3-yl)-1,2-benzoxazol-6-amine], which EC50 is on record?
A: > 10000 nM

Q: How did the EC50 turn out when O=C(NC(c1noc2cc(Nc3n[nH]c4cccnc34)ccc12)C(F)(F)F)c1nccs1 (stereo not shown) [Example 153, N-[2,2,2-trifluoro-1-[6-(1H-pyrazolo[4,3-b]pyridin-3-ylamino)-1,2-benzoxazol-3-yl]ethyl]thiazole-carboxamide] was run?
A: 1390 nM

Q: With CC(C)c1noc2cc(Nc3n[nH]c4ncccc34)ccc12 [Example 154, 3-isopropyl-N-(1H-pyrazolo[3,4-b]pyridin-3-yl)-1,2-benzoxazol-6-amine] as the molecule, how does the EC50 read?
A: 586 nM

Q: How did the EC50 turn out when CC(C)c1noc2cc(Nc3n[nH]c4cccnc34)ccc12 [Example 155, 3-isopropyl-N-(1H-pyrazolo[4,3-b]pyridin-3-yl)-1,2-benzoxazol-6-amine] was run?
A: 976 nM

Q: With CN(Cc1cccnc1)C(=O)Cc1noc2cc(Nc3n[nH]c4cccnc34)ccc12 [Example 157, N-methyl-2-[6-(1H-pyrazolo[4,3-b]pyridin-3-ylamino)-1,2-benzoxazol-3-yl]-N-(3-pyridylmethyl)acetamide] as the molecule, how does the EC50 read?
A: 1750 nM

Q: How did the EC50 turn out when CN(C(=O)Cc1noc2cc(Nc3n[nH]c4cccnc34)ccc12)c1cccnc1 [Example 158, N-methyl-2-[6-(1H-pyrazolo[4,3-b]pyridin-3-ylamino)-1,2-benzoxazol-3-yl]-N-(3-pyridyl)acetamide] was run?
A: 1170 nM

Q: For CN(Cc1ccncc1)C(=O)Cc1noc2cc(Nc3n[nH]c4cccnc34)ccc12 [Example 160, N-methyl-2-[6-(1H-pyrazolo[4,3-b]pyridin-3-ylamino)-1,2-benzoxazol-3-yl]-N-(4-pyridylmethyl)acetamide], which EC50 is on record?
A: 3430 nM

Q: With O=C(Cc1noc2cc(Nc3n[nH]c4cccnc34)ccc12)N1CCN(CC(F)(F)F)CC1 [Example 161, 2-[6-(1H-pyrazolo[4,3-b]pyridin-3-ylamino)-1,2-benzoxazol-3-yl]-1-[4-(2,2,2-trifluoroethyl)piperazin-1-yl]ethanone] as the molecule, how does the EC50 read?
A: 1870 nM

Q: How did the EC50 turn out when O=C(Cc1noc2cc(Nc3n[nH]c4cccnc34)ccc12)N1CCCC1c1ccccn1 (stereo not shown) [Example 162] was run?
A: > 10000 nM
